Source: patent US20140171427A1, “Heterocyclic chromene-spirocyclic piperidine amides as modulators of ion channels” (VERTEX PHARMACEUTICALS INCORPORATED, priority 2010, published 2014)

Molecular target: human NaV subtype
Assay: E-VIPR optical membrane potential assay with electrical stimulation
Type: cell-based
Details: active against one or more sodium channels; assay and NaV subtype not specified for Table 3; read-out: Binned Activity Data (IC50)
Text: E-VIPR Optical Membrane Potential Assay Method with Electrical Stimulation
Sodium channels are voltage-dependent proteins that can be activated by inducing membrane voltage changes by applying electric fields. The electrical stimulation instrument and methods of use are described in Ion Channel Assay Methods PCT/US01/21652, herein incorporated by reference and are referred to as E-VIPR. The instrument comprises a microtiter plate handler, an optical system for exciting the coumarin dye while simultaneously recording the coumarin and oxonol emissions, a waveform generator, a current- or voltage-controlled amplifier, and a device for inserting electrodes in well. Under integrated computer control, this instrument passes user-programmed electrical stimulus protocols to cells within the wells of the microtiter plate.
24 hours before the assay on E-VIPR, HEK cells expressing human NaV subtype, like NaV 1.7, are seeded in 384-well poly-lysine coated plates at 15,000-20,000 cells per well. Other subtypes are performed in an analogous mode in a cell line expressing the NaV of interest. HEK cells are grown in media (exact composition is specific to each cell type and NaV subtype) supplemented with 10% FBS (Fetal Bovine Serum, qualified; GibcoBRL #16140-071) and 1% Pen-Strep (Penicillin-Streptomycin; GibcoBRL #15140-122). Cells are grown in vented cap flasks, in 90% humidity and 10% CO2, to 100% confluence. They are usually split by trypsinization 1:10 or 1:20, depending on scheduling needs, and grown for 2-3 days before the next split.
100 mg/mL Pluronic F-127 (Sigma #P2443), in dry DMSO
Compound Plates: 384-well round bottom plate, e.g. Corning 384-well Polypropylene Round Bottom #3656
Cell Plates: 384-well tissue culture treated plate, e.g. Greiner #781091-1B
Bath1 buffer. Glucose 10 mM (1.8 g/L), Magnesium Chloride (Anhydrous), 1 mM (0.095 g/L), Calcium Chloride, 2 mM (0.222 g/L), HEPES 10 mM (2.38 g/L), Potassium Chloride, 4.5 mM (0.335 g/L), Sodium Chloride 160 mM (9.35 g/L).
Hexyl Dye Solution: Bath1 Buffer+0.5% β-cyclodextrin (make this prior to use, Sigma #C4767), 8 μM CC2-DMPE+DiSBAC6(3). To make the solution Add volume of 10% Pluronic F127 stock equal to volumes of CC2-DMPE+DiSBAC6(3). The order of preparation is first mix Pluronic and CC2-DMPE, then add DiSBAC6(3) while vortexing, then add Bath1+β-Cyclodextrin.
1) Pre-spot compounds (in neat DMSO) into compound plates. Vehicle control (neat DMSO), the positive control (20 mM DMSO stock tetracaine, 125 μM final in assay) and test compounds are added to each well at 160× desired final concentration in neat DMSO. Final compound plate volume will be 80 μL (80-fold intermediate dilution from 1 μL DMSO spot; 160-fold final dilution after transfer to cell plate). Final DMSO concentration for all wells in assay is 0.625%.
2) Prepare Hexyl Dye Solution.
3) Prepare cell plates. On the day of the assay, medium is aspirated and cells are washed three times with 100 μL of Bathl Solution, maintaining 25 μL residual volume in each well.
4) Dispense 25 μL per well of Hexyl Dye Solution into cell plates. Incubate for 20-35 minutes at room temp or ambient conditions.
5) Dispense 80 μL per well of Bathl into compound plates. Acid Yellow-17 (1 mM) is added and Potassium Chloride can be altered from 4.5 to 20 mM depending on the NaV subtype and assay sensitivity.
6) Wash cell plates three times with 100 μL per well of Bathl, leaving 25 μL of residual volume. Then transfer 25 uL per well from Compound Plates to Cell Plates. Incubate for 20-35 minutes at room temp/ambient condition
7) Read Plate on E-VIPR. Use the current-controlled amplifier to deliver stimulation wave pulses for typically 9 seconds and a scan rate of 400 Hz. A pre-stimulus recording is performed for 0.5 seconds to obtain the un-stimulated intensities baseline. The stimulatory waveform is applied for 9 seconds followed by 0.5 seconds of post-stimulation recording to examine the relaxation to the resting state. […]

Sequence of human NaV subtype (Q15858 whole entry): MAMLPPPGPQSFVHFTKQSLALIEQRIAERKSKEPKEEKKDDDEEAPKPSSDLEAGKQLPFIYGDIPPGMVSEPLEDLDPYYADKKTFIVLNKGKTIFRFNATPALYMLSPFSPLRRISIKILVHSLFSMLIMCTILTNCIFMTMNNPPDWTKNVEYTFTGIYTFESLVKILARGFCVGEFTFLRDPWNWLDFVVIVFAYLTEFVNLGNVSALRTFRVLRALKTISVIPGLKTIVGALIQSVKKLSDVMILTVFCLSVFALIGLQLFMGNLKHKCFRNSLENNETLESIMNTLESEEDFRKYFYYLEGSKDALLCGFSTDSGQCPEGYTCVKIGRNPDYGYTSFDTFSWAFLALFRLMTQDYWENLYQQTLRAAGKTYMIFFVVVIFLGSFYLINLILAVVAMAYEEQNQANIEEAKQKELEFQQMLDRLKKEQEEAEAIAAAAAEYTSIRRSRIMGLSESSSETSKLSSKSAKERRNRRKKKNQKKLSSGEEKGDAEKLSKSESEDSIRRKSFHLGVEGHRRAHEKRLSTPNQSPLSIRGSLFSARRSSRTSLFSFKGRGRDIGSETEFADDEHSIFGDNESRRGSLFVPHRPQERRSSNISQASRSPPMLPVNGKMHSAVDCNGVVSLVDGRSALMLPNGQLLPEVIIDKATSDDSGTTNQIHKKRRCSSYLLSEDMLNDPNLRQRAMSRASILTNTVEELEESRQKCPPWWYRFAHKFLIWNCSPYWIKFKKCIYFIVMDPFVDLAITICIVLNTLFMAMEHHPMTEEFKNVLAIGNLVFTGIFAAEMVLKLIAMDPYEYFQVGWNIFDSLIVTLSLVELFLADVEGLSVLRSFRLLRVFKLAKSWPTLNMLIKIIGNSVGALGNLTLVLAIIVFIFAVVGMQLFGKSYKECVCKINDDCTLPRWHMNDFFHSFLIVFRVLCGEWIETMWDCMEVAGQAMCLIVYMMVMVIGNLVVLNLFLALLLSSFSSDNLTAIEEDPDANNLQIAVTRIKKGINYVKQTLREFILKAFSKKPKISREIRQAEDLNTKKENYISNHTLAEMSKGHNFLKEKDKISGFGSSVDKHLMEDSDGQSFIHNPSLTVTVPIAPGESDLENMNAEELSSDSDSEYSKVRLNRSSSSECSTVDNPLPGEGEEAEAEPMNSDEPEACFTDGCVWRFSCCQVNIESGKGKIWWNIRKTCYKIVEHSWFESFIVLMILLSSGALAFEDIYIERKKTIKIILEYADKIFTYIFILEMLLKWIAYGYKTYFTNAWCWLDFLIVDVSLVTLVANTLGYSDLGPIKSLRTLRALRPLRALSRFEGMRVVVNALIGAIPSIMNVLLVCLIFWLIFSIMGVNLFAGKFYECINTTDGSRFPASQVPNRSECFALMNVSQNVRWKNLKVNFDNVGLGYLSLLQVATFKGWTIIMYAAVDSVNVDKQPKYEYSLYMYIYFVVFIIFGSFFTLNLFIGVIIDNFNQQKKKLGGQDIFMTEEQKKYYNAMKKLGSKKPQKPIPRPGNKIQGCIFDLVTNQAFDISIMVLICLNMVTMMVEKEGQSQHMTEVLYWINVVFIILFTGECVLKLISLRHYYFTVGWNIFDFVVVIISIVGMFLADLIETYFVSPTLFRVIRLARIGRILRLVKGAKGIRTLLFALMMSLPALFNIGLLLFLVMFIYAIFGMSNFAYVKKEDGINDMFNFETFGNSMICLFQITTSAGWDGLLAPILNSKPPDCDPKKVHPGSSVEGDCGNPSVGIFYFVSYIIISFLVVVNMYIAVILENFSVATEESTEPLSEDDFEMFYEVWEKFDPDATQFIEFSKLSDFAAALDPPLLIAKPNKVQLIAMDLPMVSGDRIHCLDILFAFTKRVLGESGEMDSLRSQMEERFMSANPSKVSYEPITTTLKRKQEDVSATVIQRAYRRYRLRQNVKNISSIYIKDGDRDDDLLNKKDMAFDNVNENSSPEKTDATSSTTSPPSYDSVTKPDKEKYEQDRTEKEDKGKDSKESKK

| Structure (SMILES) | IC50 [µM] |
| --- | --- |
| N#Cc1ccc2n1-c1ccccc1OC21CCN(C(=O)c2ccc(C(F)(F)F)cc2)CC1 [Compound 481] | > 5 |
| COc1cc(C(=O)N2CCC3(CC2)Oc2cc(F)ccc2-n2cccc23)ccc1OC[C@H](O)CO [Compound 606] | < 2 |
| COC(=O)C(C)(C)c1ccc(C(=O)N2CCC3(CC2)Oc2ccccc2-c2c3cnn2C)cc1OC [Compound 403] | < 2 |
| C[C@](O)(CO)c1ccc(C(=O)N2CCC3(CC2)Oc2ccccc2-n2c(C(F)(F)F)ccc23)cc1 [Compound 640] | < 2 |
| Cc1cc(C(=O)N2CCC3(CC2)Oc2ccccc2-n2c(C#N)ccc23)ccc1[C@@](C)(O)CO [Compound 54] | < 2 |
| COc1cc(C(=O)N2CCC3(CC2)Oc2ccccc2-n2c(C#N)ccc23)ccc1OC[C@@H](O)CO [Compound 680] | < 2 |
